Laboratory results: the CheMixHub viscosity set
± gives the uncertainty stated by the source.

Test: xn = mol fraction of the nth substance listed

CCCCCC(=O)[O-].[Na+] + CCCCCCCCCC(=O)O
100 kPa, x1 = 0.3
Settings | viscosity [mPa·s]
293.15 K | 285.4 ± 9.2
298.15 K | 213.6 ± 6
303.15 K | 162.3 ± 3.9
308.15 K | 125.7 ± 2.5
313.15 K | 98.9 ± 1.6
318.15 K | 79 ± 1
323.15 K | 63.9 ± 0.7

FCC(F)(F)F + FC(F)C(F)(F)F
viscosity [mPa·s], 101 kPa
Settings | x1 = 0.25 | x1 = 0.5 | x1 = 0.746
298.15 K | 0.158 ± 0.0035 | 0.1739 ± 0.0038 | 0.1862 ± 0.0041
313.15 K | 0.1263 ± 0.0029 | 0.1395 ± 0.0031 | 0.151 ± 0.0034

O=S(=O)([N-]S(=O)(=O)C(F)(F)C(F)(F)F)C(F)(F)F.[Li+] + O
101 kPa, x1 = 0.3
Settings | viscosity [mPa·s]
293.15 K | 145 ± 4
298.15 K | 114 ± 3
303.15 K | 89.8 ± 2.2
313.15 K | 58.8 ± 1.4
323.15 K | 40.2 ± 0.9

O=S(Cl)Cl + Cc1cc(C)cc(C)c1
298.15 K, 101 kPa
Settings | viscosity [mPa·s]
x1 = 0.234 | 0.685 ± 0.018
x1 = 0.314 | 0.6908 ± 0.018
x1 = 0.432 | 0.6952 ± 0.018
x1 = 0.571 | 0.6939 ± 0.018
x1 = 0.743 | 0.677 ± 0.017
x1 = 0.9 | 0.6495 ± 0.017

[Al+3].[Cl-].[Cl-].[Cl-] + O
Settings | viscosity [mPa·s]
293.15 K, 101 kPa, x1 = 0.039 | 5.58 ± 0.15

C1COCO1 + CC#N
viscosity [mPa·s], 101 kPa
Settings | x2 = 0.167 | x2 = 0.3109 | x2 = 0.4361 | x2 = 0.5461 | x2 = 0.6435 | x2 = 0.7302 | x2 = 0.8081 | x2 = 0.8783 | x2 = 0.942
298.15 K | 0.5233 ± 0.014 | 0.4737 ± 0.012 | 0.436 ± 0.011 | 0.4046 ± 0.01 | 0.3783 ± 0.0099 | 0.3591 ± 0.0094 | 0.3444 ± 0.009 | 0.338 ± 0.0088 | 0.3366 ± 0.0088
308.15 K | 0.4618 ± 0.012 | 0.4235 ± 0.011 | 0.3913 ± 0.01 | 0.3646 ± 0.0095 | 0.3419 ± 0.0089 | 0.3251 ± 0.0085 | 0.3134 ± 0.0082 | 0.3077 ± 0.0081 | 0.307 ± 0.0081
318.15 K | 0.4132 ± 0.011 | 0.3791 ± 0.0099 | 0.3502 ± 0.0092 | 0.3263 ± 0.0085 | 0.3065 ± 0.008 | 0.291 ± 0.0076 | 0.2817 ± 0.0074 | 0.278 ± 0.0073 | 0.2797 ± 0.0074

C1COCO1 + CO
303.15 K, 101 kPa
Settings | viscosity [mPa·s]
x1 = 0.04585 | 0.5056 ± 0.02
x1 = 0.09758 | 0.5088 ± 0.02
x1 = 0.1564 | 0.516 ± 0.02
x1 = 0.2238 | 0.5272 ± 0.02
x1 = 0.3019 | 0.5382 ± 0.02
x1 = 0.3935 | 0.5516 ± 0.02
x1 = 0.5023 | 0.5642 ± 0.02
x1 = 0.6337 | 0.5454 ± 0.02
x1 = 0.7956 | 0.5446 ± 0.02

CCCCCCCCC + CCCCCCCCCC
298.15 K, 101.33 kPa
Settings | viscosity [mPa·s]
x1 = 0.1051 | 0.8387 ± 0.011
x1 = 0.2082 | 0.8061 ± 0.011
x1 = 0.3045 | 0.7835 ± 0.01
x1 = 0.4048 | 0.7761 ± 0.01
x1 = 0.5057 | 0.7535 ± 0.01
x1 = 0.6085 | 0.7344 ± 0.0098
x1 = 0.7065 | 0.7185 ± 0.0096
x1 = 0.806 | 0.6913 ± 0.0093
x1 = 0.897 | 0.6734 ± 0.0091
